Experimental data from patent publication US20230286925A1, “PHENYL TRIAZOLE MLL1-WDR5 PROTEIN-PROTEIN INTERACTION INHIBITOR” (HUYABIO International, LLC, priority 2022, published 2023).
Like-named read-outs stand apart in the source and are kept apart here.

Assays:
MV-411 cells = assay: Anti-proliferative activity against leukemia cells (CellTiterGlo viability, 72 hrs); format: cell-based
Description: Procedure: MV-411 or Molm-13 cells were seeded into 384 well plates at 2000 cells/well density in 50 uL according plate map and were allowed to naturally sediment by waiting about 30 min in Clean Bench. Next, plated cells were centrifuged for 1 min at 1000 rpm and the excess cells were transferred into the flasks for further culture. Cells in the assay plates were incubated (at least 4 hrs) at 37° C., 5% CO2 for next process followed by adding the compounds as the plate map indicated. The tests were performed in duplicates with treatment of compounds at 10 pts 3 fold titration in 384 well plates. Taxol was as positive control while DMSO as negative control. To rule out edge effect, the wells on the edge were not seeded and therefore one 384 well plate holds 13 compounds. Cells viability was measured 72 hrs after incubation with compounds and using CellTiterGlo (promega) viability assay according to manufactory's instruction to check the ATP production in each well.
Experiments on anti-proliferative activity against leukemia cells were conducted with some of the compounds of the invention.

[1] = target: MLL1-WDR5 protein-protein interaction (Homo sapiens (Human), UniProt P61964); assay: WDR5 TR-FRET assay of inhibition against MLL1-WDR5 protein-protein interaction; format: binding
Description: WDR5 TR-FRET Assay Procedure: Stock compounds were transferred to the assay plate by Echo Liquid Handler. Reactions were performed in the assay buffer (1×PBS, 300 mM NaCl, 0.5 mM TCEP, 0.1% CHAPS) containing 5 nM WDR5 protein, 10 nM peptide (Ac-ARTEVHLRKS-[Ahx-Ahx] [C]-Alexa Fluor 488-NH2) and 0.25 nM Tb-anti His antibody (Tb-Ab) in 384-well white plate (PerkinElmer) with a final volume of 20 μl. Compounds were incubated with WDR5 protein for 30 min at room temperature. Plates were covered, protected from light and incubated for 60 min at room temperature after adding the peptide and Tb-Ab. EnVision Multimode Plate Reader (PerkinElmer) was used for the TR-FRET assay with excitation wavelength at 340 nm and emission wavelength at 495 and 520 nm. The ratio of the 520/495 wavelengths were used to assess the degree of the FRET signal. IC50 was calculated by fitting the inhibition data using XLfit software to sigmoidal dose-response model.
Biphenyl compound DDO-2084 was reported to be a small molecule inhibitor that can inhibit MLL1-WDR5 protein-protein interaction, reduce MLL1 enzyme catalytic activity, and downregulate the expression of Hox and Meis-1 genes (Eur. J. Med. Chem. 2016, 124, 480-489). DDO-2084 is used as a positive control compound.

[2] = MV4-11, MV-411 human acute monocytic leukemia cell, Table 6
[3] = WDR5 TR-FRET, 5 nM WDR5 protein, 10 nM peptide, read-out: MLL1-WDR5 PPI inhibitory activity
[4] = MV4-11, MV-411 human acute monocytic leukemia cell, Table 7
[5] = Table 7, read-out: WDR5 TR-FRET Assay (IC50 nM)

Row | Structure (SMILES) | GI50 (MV-411 cells; [2]) [µM] | IC50 [1, 3] [nM] | GI50 (MV-411 cells; [4]) [µM] | IC50 [1, 5] [nM] | further results
1 | Cc1c(F)c(N)cc(C(=O)Nc2cc(-n3cc(C(=O)NC4CCOCC4)nn3)c(F)cc2N2C[C@@H](C)N(C)[C@@H](C)C2)c1Cl [HYBI_086] | 19.7 | 3.99 |  |  | 
2 | CN1CCN(c2ccc(-n3cc(C(=O)NCCCN4CCOCC4)nn3)cc2NC(=O)c2nn(C)c3ccccc23)CC1 [HYBI_050] | 10.7 | 5560 |  |  | 
3 | Cc1c(F)c(N)cc(C(=O)Nc2cc(-n3cc(C(=O)NCCCN4CCOCC4)nn3)ccc2N2CCN(C)[C@@H](C)C2)c1Cl [HYBI_020] | 8.36 | 8.23 |  |  | 
4 | Cc1cc(C(=O)Nc2cc(-n3cc(C(=O)NCCCN4CCOCC4)nn3)ccc2N2CCN(C)CC2)cc(C)c1F [HYBI_037] | 8.38 | 109 |  |  | 
5 | Cc1c(F)c(N)cc(C(=O)Nc2cc(-n3cc(C(=O)NCCCN4CCOCC4)nn3)ccc2N2CCN(C)C(C)C2)c1Cl (stereo not shown) [DDO-2306] | 7.11 |  |  |  | 
6 | CCN(CC)C(=O)c1cn(-c2cc(NC(=O)c3cc(N)c(F)c(C)c3Cl)c(N3C[C@@H](C)N(C)[C@@H](C)C3)cc2F)nn1 [HYBI_082] |  | 4.91 |  |  | GI50 (MV-411 cells; MV-411 human acute monocytic leukemia cell, Table 6): 2.4 µM
7 | C[C@H]1CN(c2cc(F)c(-c3ccc(C(=O)N(C)C)cc3)cc2Nc2ncnc(Cl)c2N)CCN1C [DDO-2213_001, (S)-5′-((5-amino-6-chloropyrimidin-4-yl)amino)-4′-(3,4-dimethylpiperazin-1-yl)-2′-fluoro-N,N-dimethyl-[1,1′-biphenyl]-4-carboxamide] |  |  | 11.6 | 11.1 | 
8 | Cc1c(F)c(N)cc(C(=O)Nc2cc(-n3cc(C(=O)NCCCN4CCOCC4)nn3)ccc2N2CCCN(C)CC2)c1Cl [HYBI_022] | 17.2 | 62.3 |  |  | 
9 | Cc1c(F)ccc(C(=O)Nc2cc(-n3cc(C(=O)NCCCN4CCOCC4)nn3)ccc2N2CCN(C)CC2)c1Cl [HYBI_038] | 17.5 | 185 |  |  | 
10 | CC(C)N1CCN(c2ncc(-c3cc(Nc4ncnc(Cl)c4N)c(N4C[C@@H](C)N(C)[C@@H](C)C4)cc3F)cn2)CC1 [DDO-2213_027, 6-chloro-N4-(4-fluoro-5-(2-(4-isopropylpiperazin-1-yl)pyrimidin-5-yl)-2-((3S,5R)-3,4,5-trimethylpiperazin-1-yl)phenyl)pyrimidine-4,5-diamine] |  |  | 6.56 | 31.3 | 
11 | CN1CCCN(c2cc(F)c(-c3ccc(C(=O)N(C)C)cc3)cc2Nc2ncnc(Cl)c2N)CC1 [DDO-2213_003, 5′-((5-amino-6-chloropyrimidin-4-yl)amino)-2′-fluoro-N,N-dimethyl-4′-(4-methyl-1,4-diazepan-1-yl)-[1,1′-biphenyl]-4-carboxamide] |  |  | 59.9 | 395 | 
12 | Cc1c(F)c(N)cc(C(=O)Nc2cc(-n3cc(C(=O)OCC4CCN(C)CC4)nn3)ccc2N2CCN(C)CC2)c1Cl [HYBI_016] | 7.1 | 20.6 |  |  | 
13 | Cc1c(F)c(N)cc(C(=O)Nc2cc(-n3cc(C(=O)NCCCN4CCOCC4)nn3)c(F)cc2N2C[C@@H](C)N(C)[C@@H](C)C2)c1Cl [HYBI_028] | 30.9 | 5.24 |  |  | 
14 | CC(C)NC(=O)c1ccc(-c2cc(Nc3ncnc(Cl)c3N)c(N3C[C@@H](C)N(C)[C@@H](C)C3)cc2F)cc1 [DDO-2213_004, 5′-((5-amino-6-chloropyrimidin-4-yl)amino)-2′-fluoro-N-isopropyl-4′-((3S,5R)-3,4,5-trimethylpiperazin-1-yl)-[1,1′-biphenyl]-4-carboxamide] |  |  | 14.8 | 68.8 | 
15 | C[C@H]1CN(c2cc(F)c(-c3ccc(NC(=O)C4CCCCC4)cc3)cc2Nc2ncnc(Cl)c2N)CCN1C [DDO-2213_005, (S)—N-(5′-((5-amino-6-chloropyrimidin-4-yl)amino)-4′-(3,4-dimethylpiperazin-1-yl)-2′-fluoro-[1,1′-biphenyl]-4-yl)cyclohexanecarboxamide] |  |  | 3.37 | 11.1 | 
16 | CCOC(=O)[C@H](C)OC(=O)c1cn(-c2ccc(N3CCN(C)CC3)c(NC(=O)c3cc(N)c(F)c(C)c3Cl)c2)nn1 [HYBI_013] | 2.46 | 19.4 |  |  | 

Row | Structure (SMILES) | GI50 (MV-411 cells; [2]) [µM] | IC50 [1, 3] [nM] | GI50 (MV-411 cells; [4]) [µM] | IC50 [1, 5] [nM] | further results
17 | Cc1cc(C)cc(C(=O)Nc2cc(-n3cc(C(=O)NCCCN4CCOCC4)nn3)ccc2N2CCN(C)CC2)c1 [HYBI_044] | 64.8 | 903 |  |  | 
18 | Cc1c(F)c(N)cc(C(=O)Nc2cc(-n3cc(C(=O)NCCCN4CCOCC4)nn3)c(F)cc2N2CCN(C)CC2)c1Cl [HYBI_023] | 32 | 19.8 |  |  | 
19 | C[C@H]1CN(c2cc(F)c(-c3ccnc(OCC4CC4)c3)cc2Nc2ncnc(Cl)c2N)CCN1C [DDO-2213_008, (S)-6-chloro-N4-(5-(2-(cyclopropylmethoxy)pyridin-4-yl)-2-(3,4-dimethylpiperazin-1-yl)-4-fluorophenyl)pyrimidine-4,5-diamine] |  |  | 4.76 | 8.63 | 
20 | C[C@@H]1CN(c2cc(F)c(-c3ccc(NC(=O)C4CCCCC4)cc3)cc2Nc2ncnc(Cl)c2N)C[C@H](C)N1C [DDO-2213_006, N-(5′-((5-amino-6-chloropyrimidin-4-yl)amino)-2′-fluoro-4′-((3S,5R)-3,4,5-trimethylpiperazin-1-yl)-[1,1′-biphenyl]-4-yl)cyclohexanecarboxamide] |  |  | 6.09 | 38.6 | 
21 | C[C@@H]1CN(c2cc(F)c(-c3ccc(C(=O)N(C)C)cc3)cc2Nc2ncnc(Cl)c2N)C[C@H](C)N1C [DDO-2213_002, 4-[5-[(5-amino-6-chloro-pyrimidin-4-yl)amino]-2-fluoro-4-[(3R,5S)-3,4,5-trimethylpiperazin-1-yl]phenyl]-N,N-dimethyl-benzamide] |  |  | 15.6 | 55.5 | 
22 | CCCC(=O)Nc1ccc(-c2cc(Nc3ncnc(Cl)c3N)c(N3C[C@@H](C)N(C)[C@@H](C)C3)cc2F)cc1 [DDO-2213_007, N-(5′-((5-amino-6-chloropyrimidin-4-yl)amino)-2′-fluoro-4′-((3S,5R)-3,4,5-trimethylpiperazin-1-yl)-[1,1′-biphenyl]-4-yl)butyramide] |  |  | 11.5 | 51.3 | 
23 | C[C@@H]1CN(c2ncc(-c3cc(Nc4ncnc(Cl)c4N)c(N4CCN(C)[C@@H](C)C4)cc3F)cn2)C[C@H](C)O1 [DDO-2213_023, 6-chloro-N4-(5-(2-((2S,6R)-2,6-dimethylmorpholino)pyrimidin-5-yl)-2-((S)-3,4-dimethylpiperazin-1-yl)-4-fluorophenyl)pyrimidine-4,5-diamine] |  |  | 2.79 | 3.56 | 
24 | Cc1c(F)c(N)cc(C(=O)Nc2cc(-n3cc(C(=O)NCCCN4CCOCC4)nn3)c(F)cc2N2CCN(C)[C@H](C)C2)c1Cl [DDO-2313] | 40.9 |  |  |  | 
25 | Cc1c(F)c(N)cc(C(=O)Nc2cc(-n3cc(C(=O)N(C)CCCO)nn3)ccc2N2CCN(C)CC2)c1Cl [HYBI_019A] | 24.9 | 17.1 |  |  | 
26 | Cc1cc(C(=O)Nc2cc(-n3cc(C(=O)NCCCN4CCOCC4)nn3)ccc2N2CCN(C)CC2)ccc1F [HYBI_041] | 13.2 |  |  |  | 
27 | COc1cc(N2CCN(C)CC2)c(NC(=O)c2cc(N)c(F)c(C)c2Cl)cc1-n1cc(C(=O)NCCCN2CCOCC2)nn1 [DDO-2315] | 24.5 |  |  |  | 
28 | Cc1c(F)c(N)cc(C(=O)Nc2cc(-n3cc(C(=O)NCCCN4CCOCC4)nn3)c(F)cc2N2CCN(C)[C@@H](C)C2)c1Cl [DDO-2312] | 24.5 |  |  |  | 
29 | COC(=O)c1cn(-c2cc(NC(=O)c3cc(N)c(F)c(C)c3Cl)c(N3CCN(C)CC3)cc2F)nn1 [DDO-2316] | 25.4 |  |  |  | 
30 | Cc1c(F)c(N)cc(C(=O)Nc2cc(-n3cc(C(=O)OCC4(C)CCCCC4)nn3)ccc2N2CCN(C)CC2)c1Cl [HYBI_014] | 2.62 |  |  |  | 
31 | CN1CCN(c2ccc(-n3cc(C(=O)NCCCN4CCOCC4)nn3)cc2NC(=O)c2ccc(O)cc2C(F)(F)F)CC1 [HYBI_043] | 76 |  |  |  | 
32 | Cc1c(F)c(N)cc(C(=O)Nc2cc(-n3cc(C(=O)NCCCN4CCOCC4)nn3)ccc2N2CCN(C)[C@H](C)C2)c1Cl [DDO-2308] | 9.29 |  |  |  | 
